According to patent US20050009840A1 (SUGEN, INC., priority 2003, published 2005):

target: T1, HGFR (Homo sapiens, UniProt P08581); assay: HGFR continuous-coupled spectrophotometric assay; type: biochemical; settings: at 50 nM; Table 5, library procedure 40; read-out: % inhibition (percent c-MET inhibition)
T1 construct: purchased Upstate 14-526
T1 sequence (P08581 974-1390 limits assumed): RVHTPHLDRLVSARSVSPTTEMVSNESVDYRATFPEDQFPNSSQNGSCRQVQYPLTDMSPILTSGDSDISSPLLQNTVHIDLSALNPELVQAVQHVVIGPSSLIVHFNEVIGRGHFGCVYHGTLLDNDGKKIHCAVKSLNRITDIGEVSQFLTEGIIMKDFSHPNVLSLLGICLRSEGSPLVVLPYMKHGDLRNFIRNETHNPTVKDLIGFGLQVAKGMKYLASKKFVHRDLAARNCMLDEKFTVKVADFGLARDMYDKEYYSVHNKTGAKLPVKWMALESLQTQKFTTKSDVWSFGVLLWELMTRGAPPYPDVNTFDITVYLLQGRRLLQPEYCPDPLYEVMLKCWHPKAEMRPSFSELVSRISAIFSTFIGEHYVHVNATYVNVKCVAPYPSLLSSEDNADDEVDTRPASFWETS

inhibition at 0.05 µM [%]	Compound
73	CCCNC(=O)c1ccc(-c2cnc(N)c(OC(C)c3c(Cl)ccc(F)c3Cl)c2)cc1 [Example L-66]
53	CC(C)CCNC(=O)c1ccc(-c2cnc(N)c(OC(C)c3c(Cl)ccc(F)c3Cl)c2)cc1 [Example L-67]
70	CCOC(=O)CN1CCN(C(=O)c2ccc(-c3cnc(N)c(OC(C)c4c(Cl)ccc(F)c4Cl)c3)cc2)CC1 [Example L-68]
66	CC(Oc1cc(-c2ccc(C(=O)NCCc3c[nH]c4ccc(O)cc34)cc2)cnc1N)c1c(Cl)ccc(F)c1Cl [Example L-69]
71	CC(Oc1cc(-c2ccc(C(=O)NC3CCC3)cc2)cnc1N)c1c(Cl)ccc(F)c1Cl [Example L-70]
92	CC(Oc1cc(-c2ccc(C(=O)N(C)C3CCN(C)C3)cc2)cnc1N)c1c(Cl)ccc(F)c1Cl [Example L-71]
62	CC(Oc1cc(-c2ccc(C(=O)NCC(C)(C)C)cc2)cnc1N)c1c(Cl)ccc(F)c1Cl [Example L-72]
90	CC(Oc1cc(-c2ccc(C(=O)N3CCCCC3CN3CCCCC3)cc2)cnc1N)c1c(Cl)ccc(F)c1Cl [Example L-73]
65	C[C@H](Oc1cc(-c2ccc(C(=O)NC3C[C@@H]3c3ccccc3)cc2)cnc1N)c1c(Cl)ccc(F)c1Cl (stereo partly drawn) [Example L-74]
53	CC(Oc1cc(-c2ccc(C(=O)NCCc3c(Cl)cccc3Cl)cc2)cnc1N)c1c(Cl)ccc(F)c1Cl [Example L-75]
73	CC(Oc1cc(-c2ccc(C(=O)N(C)CCc3ccncc3)cc2)cnc1N)c1c(Cl)ccc(F)c1Cl [Example L-76]
54	CC(Oc1cc(-c2ccc(C(=O)NCc3ccc(OC(F)(F)F)cc3)cc2)cnc1N)c1c(Cl)ccc(F)c1Cl [Example L-77]
68	CC(Oc1cc(-c2ccc(C(=O)N(C)CCC#N)cc2)cnc1N)c1c(Cl)ccc(F)c1Cl [Example L-78]
73	COCCNC(=O)c1ccc(-c2cnc(N)c(OC(C)c3c(Cl)ccc(F)c3Cl)c2)cc1 [Example L-79]
60	C[C@H](Oc1cc(-c2ccc(C(=O)N[C@@H](C)C3CCCCC3)cc2)cnc1N)c1c(Cl)ccc(F)c1Cl [Example L-80]
67	CC(Oc1cc(-c2ccc(C(=O)NC3(CO)CCCC3)cc2)cnc1N)c1c(Cl)ccc(F)c1Cl [Example L-81]
74	CC(C)[C@@H](CO)NC(=O)c1ccc(-c2cnc(N)c(O[C@@H](C)c3c(Cl)ccc(F)c3Cl)c2)cc1 [Example L-82]
54	C[C@H](Oc1cc(-c2ccc(C(=O)N[C@H](C)C3CCCCC3)cc2)cnc1N)c1c(Cl)ccc(F)c1Cl [Example L-83]
67	C[C@H](Oc1cc(-c2ccc(C(=O)NC[C@@H]3CCCC[C@H]3O)cc2)cnc1N)c1c(Cl)ccc(F)c1Cl [Example L-84]
57	CCOC(=O)C1CCN(C(=O)c2ccc(-c3cnc(N)c(OC(C)c4c(Cl)ccc(F)c4Cl)c3)cc2)CC1 [Example L-86]
56	CC(Oc1cc(-c2ccc(C(=O)NC3CCCCC3)cc2)cnc1N)c1c(Cl)ccc(F)c1Cl [Example L-87]
90	CC(Oc1cc(-c2ccc(C(=O)NCCCN3CCCC3)cc2)cnc1N)c1c(Cl)ccc(F)c1Cl [Example L-88]
96	CC(Oc1cc(-c2ccc(C(=O)N3CCN(c4ccncc4)CC3)cc2)cnc1N)c1c(Cl)ccc(F)c1Cl [Example L-89]
85	CC(Oc1cc(-c2ccc(C(=O)N3CCN(CCN(C)C)CC3)cc2)cnc1N)c1c(Cl)ccc(F)c1Cl [Example L-90]
69	C[C@H](Oc1cc(-c2ccc(C(=O)NC[C@H](O)c3ccccc3)cc2)cnc1N)c1c(Cl)ccc(F)c1Cl [Example L-91]
64	COc1cc(CCNC(=O)c2ccc(-c3cnc(N)c(OC(C)c4c(Cl)ccc(F)c4Cl)c3)cc2)ccc1O [Example L-92]
62	CC(NC(=O)c1ccc(-c2cnc(N)c(OC(C)c3c(Cl)ccc(F)c3Cl)c2)cc1)c1ccc(O)cc1 [Example L-93]
